Measured values taken from patent publication US10940135B2, “Paclitaxel pharmaceutical composition and pharmaceutical preparation thereof, preparation process and use thereof” (Sinotherapeutics Inc., priority 2016, dated 2021).
Values after ≈ are worked out from the molar mass of the structure shown.

Tests used:
[1] = Apparent solubility determination in pH 6.8 phosphate buffer; format: physicochemical
Procedure: Apparent solubility determination: an excessive amount of the pharmaceutical compositions was weighed and put into a container. Phosphate buffer solution with pH6.8 was added respectively. The volume of the phosphate buffer solution was about 2/3 of volume of the container. The container was then shaken in a shaking table at 37° C. for 3 h. The resulting solution was filtered with a 0.45 μm filter membrane, then the filtrate was collected, further diluted with an appropriate amount of methanol, mixed by vortex and analyzed by HPLC.
Wherein the HPLC analysis parameters are as follows: […]

[2] = Dissolution determination (USP II method, pH 6.8 buffer + 0.2% Tween 80); format: physicochemical; conditions: pH 6.8 buffer + 0.2% Tween 80, 100 rpm, 37.5° C.
Source text: Dissolution Determination:
Wherein pH6.8 represents the environment simulating the human intestinal tract (small intestine).
Analysis of dissolved sample: the solution obtained in the dissolution determination test was filtered with a 0.45 μm filter membrane, then the filtrate was collected, further diluted with an appropriate amount of methanol, mixed by vortex and analyzed by HPLC. The HPLC analysis method of the dissolved sample was the same as the HPLC analysis method mentioned above in the solubility determination.

[3] = cited from earlier work
[4] = cited from earlier work; remark: listed apart in the source
[5] = reported as 0.1˜<10 μg/ml; cited from earlier work

For `CC(=O)O[C@H]1C(=O)[C@@]2(C)[C@H]([C@H](OC(=O)c3ccccc3)[C@]3(O)C[C@H](OC(=O)[C@H](O)[C@@H](NC(=O)c4ccccc4)c4ccccc4)C(C)=C1C3(C)C)[C@]1(OC(C)=O)CO[C@@H]1C[C@@H]2O` [Bulk drug, 5β,20-epoxy-1,2α,4,7β,10β,13α-hexahydroxytaxane-11-ene-9-one-4,10-diacetate-2-benzoate-13[(2′R,3′S)—N-benzoyl-3-phenylisoserine ester]], the “Ratio of solubility (composition/bulk drug)” value [1] was 1, the solubility at 3 h ([1]; aqueous buffer, thermodynamic from solid, apparent solubility, 37° C., shaken 3 h) was 4 µg/mL (≈ 4.68 µM) and the Dissolution % ([2]; 15 min) was 13.1%. The Dissolution % ([2]; 30 min) was 14.5%, the Dissolution % ([2]; 45 min) was 14.6% and the Dissolution % ([2]; 60 min) was 14.8%. The Dissolution % ([2]; 120 min) was 14.1%, the pKa [3] was 11.99 and the oral bioavailability [4] was “about 2%”. The solubility in water [5] was “lower than 10 μg/ml”.
